These compounds were tested against T1, Human TRPC6 (Homo sapiens, UniProt Q9Y210) (assay: Evaluation of TRPC6 channel inhibitory activity (1), FLIPR Calcium 5 Assay Kit, OAG stimulation (Compound Nos. 1-1293)). Conditions: not given.
T1 construct: expressed in transfected cells
T1 sequence (Q9Y210 1-931): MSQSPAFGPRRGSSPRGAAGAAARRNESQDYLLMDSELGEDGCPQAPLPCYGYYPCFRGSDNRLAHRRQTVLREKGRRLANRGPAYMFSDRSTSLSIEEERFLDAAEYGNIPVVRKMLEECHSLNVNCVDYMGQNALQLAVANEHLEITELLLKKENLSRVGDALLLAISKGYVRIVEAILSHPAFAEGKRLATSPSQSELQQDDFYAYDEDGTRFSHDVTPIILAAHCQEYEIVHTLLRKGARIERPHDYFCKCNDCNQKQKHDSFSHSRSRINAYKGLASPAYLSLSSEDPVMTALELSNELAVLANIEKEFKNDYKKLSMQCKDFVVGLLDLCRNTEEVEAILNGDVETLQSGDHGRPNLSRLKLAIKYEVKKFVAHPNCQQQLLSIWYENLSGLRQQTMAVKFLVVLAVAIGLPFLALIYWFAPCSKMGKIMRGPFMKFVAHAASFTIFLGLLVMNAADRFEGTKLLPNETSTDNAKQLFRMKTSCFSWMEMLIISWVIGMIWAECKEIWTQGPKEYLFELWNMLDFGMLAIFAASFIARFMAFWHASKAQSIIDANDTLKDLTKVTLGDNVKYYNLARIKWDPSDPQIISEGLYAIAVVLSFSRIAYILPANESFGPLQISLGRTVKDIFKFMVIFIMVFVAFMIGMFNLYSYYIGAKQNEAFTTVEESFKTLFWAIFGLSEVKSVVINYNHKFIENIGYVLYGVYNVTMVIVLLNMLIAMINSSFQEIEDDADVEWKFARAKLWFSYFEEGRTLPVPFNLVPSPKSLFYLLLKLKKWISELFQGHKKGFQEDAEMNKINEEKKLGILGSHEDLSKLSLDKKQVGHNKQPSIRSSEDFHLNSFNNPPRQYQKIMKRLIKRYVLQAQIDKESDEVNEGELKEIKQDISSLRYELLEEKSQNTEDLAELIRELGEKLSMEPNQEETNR
Format: cell-based
Outline: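 The FLIPR signal is maximum fluorescence after 30 μM OAG minus minimum before compound, measured in a human TRPC6 stable line loaded with Calcium 5 dye. Compounds were preincubated 20 min. pIC50 came from four-parameter logistic fitting of inhibition rates and is given as symbol ranges.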

SMILES	IC50 [nM]
Cc1cc(Oc2cc(C#N)ccc2-c2ncc(CN)cn2)cc(N2C3CCC2CC3)n1 [compound 826, 4-[5-(aminomethyl)pyrimidin-2-yl]-3-[2-(7-azabicyclo[2.2.1]heptan-7-yl)-6-methylpyridin-4-yl]oxybenzonitrile]	< 10
Cc1cc(Oc2cc(C#N)ccc2-c2ncc(CCN)cn2)cc(N2C3CCC2CC3)n1 [compound 827, 4-[5-(2-aminoethyl)pyrimidin-2-yl]-3-[2-(7-azabicyclo[2.2.1]heptan-7-yl)-6-methylpyridin-4-yl]oxybenzonitrile]	< 10

Same assay, conditions: Human TRPC6 stably-expressing cells, OAG 30 μM, FLIPR Calcium 5 Assay Kit; read-out: Inhibitory activity (pIC50 class) (converted)

IC50 [nM]	SMILES
10 to 1000	N#Cc1ccc(-c2ccc(CCN)cc2)c(Oc2sc(-c3ccccc3)nc2C#N)c1 [compound 807, 5-[2-[4-(2-aminoethyl)phenyl]-5-cyanophenoxy]-2-phenyl-1,3-thiazole-4-carbonitrile]
< 10	C[C@@H](N)c1cnc(-c2ccc(C#N)cc2Oc2cc(-c3ccccn3)nn2C)nc1 [compound 808, 4-[5-[(1R)-1-aminoethyl]pyrimidin-2-yl]-3-(2-methyl-5-pyridin-2-ylpyrazol-3-yl)oxybenzonitrile]
< 10	C[C@H](N)c1cnc(-c2ccc(C#N)cc2Oc2cc(-c3ccccn3)nn2C)nc1 [compound 809, 4-[5-[(1S)-1-aminoethyl]pyrimidin-2-yl]-3-(2-methyl-5-pyridin-2-ylpyrazol-3-yl)oxybenzonitrile]
< 10	Cn1nc(C(F)(F)F)cc1Oc1cc(C#N)ccc1-c1ccc(CN)cn1 [compound 810, 4-[5-(aminomethyl)pyridin-2-yl]-3-[2-methyl-5-(trifluoromethyl)pyrazol-3-yl]oxybenzonitrile]
< 10	Cn1nc(C(F)(F)F)cc1Oc1cc(C#N)ccc1-c1ncc(CCN)cn1 [compound 812, 4-[5-(2-aminoethyl)pyrimidin-2-yl]-3-[2-methyl-5-(tritluoromethyl)pyrazol-3-yl]oxybenzonitrile]
> 1000	CC(C)c1nc(Oc2cc(C#N)ccc2-c2ncc(CCN)cn2)n(C)n1 [compound 813, 4-[5-(2-aminoethyl)pyrimidin-2-yl]-3-[(2-methyl-5-propan-2-yl-1,2,4-triazol-3-yl)oxy]benzonitrile]
> 1000	CC(C)c1nc(Oc2cc(C#N)ccc2-c2ncc(CN)cn2)n(C)n1 [compound 814, 4-[5-(aminomethyl)pyrimidin-2-yl]-3-[(2-methyl-5-propan-2-yl-1,2,4-triazol-3-yl)oxy]benzonitrile]
10 to 1000	N#Cc1ccc(-c2ncc(CN)cn2)c(Oc2cc(N3CCCCC3)nnc2Cl)c1 [compound 815, 4-[5-(aminomethyl)pyrimidin-2-yl]-3-(3-chloro-6-piperidin-1-ylpyridazin-4-yl)oxybenzonitrile]
> 1000	N#Cc1ccc(-c2ncc(CN)cn2)c(Oc2cc(Cl)nnc2N2CCCCC2)c1 [compound 816, 4-[5-(aminomethyl)pyrimidin-2-yl]-3-(6-chloro-3-piperidin-1-ylpyridazin-4-yl)oxybenzonitrile]
> 1000	N#Cc1ccc(-c2ncc(CN)cn2)c(Oc2cnnc(-c3ccccn3)c2)c1 [compound 817, 4-[5-(aminomethyl)pyrimidin-2-yl]-3-(6-pyridin-2-ylpyridazin-4 yl)oxybenzonitrile]
10 to 1000	N#Cc1ccc(-c2ncc(CN)cn2)c(Oc2cnnc(OC3CCCC3)c2)c1 [compound 818, 4-[5-(aminomethyl)pyrimidin-2-yl]-3-(6-cyclopentyloxypyridazin-4-yl)oxybenzonitrile]
10 to 1000	CC(C)COc1cc(Oc2cc(C#N)ccc2-c2ncc(CN)cn2)cnn1 [compound 819, 4-[5-(aminomethyl)pyrimidin-2-yl]-3-[6-(2-methylpropoxy)pyridazin-4-yl]oxybenzonitrile]
> 1000	N#Cc1ccc(-c2ncc(CN)cn2)c(Oc2cnnc(-n3ccccc3=O)c2)c1 [compound 820, 4-[5-(aminomethyl)pyrimidin-2-yl]-3-[6-(2-oxopyridin-1-yl)pyridazin-4-yl]oxybenzonitrile]
10 to 1000	Cc1nnc(N2CCCCC2)cc1Oc1cc(C#N)ccc1-c1ncc(CN)cn1 [compound 821, 4-[5-(aminomethyl)pyrimidin-2-yl]-3-(3-methyl-6-piperidin-1-ylpyridazin-4-yl)oxybenzonitrile]
< 10	CN(CCF)c1cc(Oc2cc(C#N)ccc2-c2ncc(CCN)cn2)n(C)n1 [compound 822, 4-[5-(2-aminoethyl)pyrimidin-2-yl]-3-[5-[2-fluoroethyl(methyl)amino]-2-methylpyrazol-3-yl]oxybenzonitrile]
< 10	Cn1nc(N(CCF)CCF)cc1Oc1cc(C#N)ccc1-c1ncc(CCN)cn1 [compound 823, 4-[5-(2-aminoethyl)pyrimidin-2-yl]-3-[5-[bis(2-fluoroethyl)amino]-2-methylpyrazol-3-yl]oxybenzonitrile]
10 to 1000	Cc1nnc(N2CCCC2)cc1Oc1cc(C#N)ccc1-c1ncc(CN)cn1 [compound 824, 4-[5-(aminomethyl)pyrimidin-2-yl]-3-(3-methyl-6-pyrrolidin-1-ylpyridazin-4-yl)oxybenzonitrile]
10 to 1000	Cc1nnc(N2CCOCC2)cc1Oc1cc(C#N)ccc1-c1ncc(CN)cn1 [compound 825, 4-[5-(aminomethyl)pyrimidin-2-yl]-3-(3-methyl-6-morpholin-4-ylpyridazin-4-yl)oxybenzonitrile]
< 10	Cn1nc(C(F)F)cc1Oc1cc(C#N)ccc1-c1ccc(CN)cn1 [compound 828, 4-[5-(aminomethyl)pyridin-2-yl]-3-[5-(difluoromethyl)-2-methylpyrazol-3-yl]oxybenzonitrile]
10 to 1000	Cn1nc(C(F)F)cc1Oc1cc(C#N)ccc1-c1ncc(CN)cn1 [compound 829, 4-[5-(aminomethyl)pyrimidin-2-yl]-3-[5-(difluoromethyl)-2-methylpyrazol-3-yl]oxybenzonitrile]
10 to 1000	Cc1c(Oc2cc(C#N)ccc2-c2ncc(CCN)cn2)cnn1-c1ccccn1 [compound 830, 4-[5-(2-aminoethyl)pyrimidin-2-yl]-3-(5-methyl-1-pyridin-2-ylpyrazol-4-yl)oxybenzonitrile]
> 1000	Cc1c(Oc2cc(C#N)ccc2-c2ncc(CN)cn2)cnn1-c1ccccn1 [compound 831, 4-[5-(aminomethyl)pyrimidin-2-yl]-3-(5-methyl-1-pyridin-2-ylpyrazol-4-yl)oxybenzonitrile]
< 10	Cc1nn(-c2ccccn2)cc1Oc1cc(C#N)ccc1-c1ncc(CCN)cn1 [compound 832, 4-[5-(2-aminoethyl)pyrimidin-2-yl]-3-(3-methyl-1-pyridin-2-ylpyrazol-4-yl)oxybenzonitrile]
< 10	Cc1nn(-c2ccccn2)cc1Oc1cc(C#N)ccc1-c1ncc(CN)cn1 [compound 833, 4-[5-(aminomethyl)pyrimidin-2-yl]-3-(3-methyl-1-pyridin-2-ylpyrazol-4 yl)oxybenzonitrile]
< 10	Cc1nn(CC(F)(F)F)cc1Oc1cc(C#N)ccc1-c1ncc(CCN)cn1 [compound 834, 4-[5-(2-aminoethyl)pyrimidin-2-yl]-3-[3-methyl-1-(2,2,2-trifluoroethyl)pyrazol-4-yl]oxybenzonitrile]
< 10	Cc1nn(CC(F)(F)F)cc1Oc1cc(C#N)ccc1-c1ncc(CN)cn1 [compound 835, 4-[5-(aminomethyl)pyrimidin-2-yl]-3-[3-methyl-1-(2,2,2-trifluoroethyl)pyrazol-4-yl]oxybenzonitrile]

Reference: patent US20230167073A1 (Teijin Pharma Limited, priority 2020, published 2023)
